# Measurements reported in the Kinase Knowledgebase extract (Sharma et al. 2016).
# pIC50: −log10 of the molar value.
# Target: CDK2 (human) (UniProt P24941)
# Assay: Cell-Based Assay
# Details: mda-mb-435
row,SMILES,pIC50
1,CCC(O)C#Cc1c([N+](=O)[O-])ccc2c1/C(=C/c1[nH]cnc1C)C(=O)N2 (configuration not stated),> 5.46
2,CCOC(=O)C(CC#Cc1c(F)ccc2c1/C(=C/c1[nH]cnc1C)C(=O)N2)NC(C)=O (configuration not stated),> 5.46
3,CCC(O)C#Cc1c(F)ccc2c1/C(=C/c1[nH]cnc1C)C(=O)N2 (configuration not stated),> 5.46
4,COC(=O)NCC#Cc1c(F)ccc2c1/C(=C/c1[nH]cnc1C)C(=O)N2,> 5.46
5,Cc1nc[nH]c1/C=C1\C(=O)Nc2ccc(F)c(C#CCC(C)O)c21 (configuration not stated),> 5.46

# Same assay, conditions: sw480
row,SMILES,pIC50
1,CCC(O)C#Cc1c([N+](=O)[O-])ccc2c1/C(=C/c1[nH]cnc1C)C(=O)N2 (configuration not stated),> 6.00
2,CCC(N)(C#Cc1c(F)ccc2c1/C(=C/c1[nH]cnc1C)C(=O)N2)CC,> 6.00
3,CCC(O)C#Cc1c(F)ccc2c1/C(=C/c1[nH]cnc1C)C(=O)N2 (configuration not stated),> 6.00
4,CNCC#Cc1c(F)ccc2c1/C(=C/c1[nH]cnc1C)C(=O)N2,> 6.00

# Target: CDK2 (UniProt P24941)
# Assay: Enzyme Assay
# Details: not given
row,SMILES,pIC50
1,CCC(O)C#Cc1cccc2c1/C(=C/c1[nH]ccc1OC)C(=O)N2 (configuration not stated),> 5.40
2,COC(=O)CCC#Cc1cccc2c1/C(=C/c1[nH]ccc1OC)C(=O)N2,> 5.40
3,COc1cc[nH]c1/C=C1\C(=O)Nc2cccc(C#CC(C)(C)O)c21,> 5.40
4,COc1cc[nH]c1/C=C1\C(=O)Nc2ccc(NC(=O)Cc3cccs3)c(C#CCCC(=O)O)c21,> 5.40
5,COc1cc[nH]c1/C=C1\C(=O)Nc2ccc(N)c(C#CCO)c21,> 5.40
6,Cc1nc[nH]c1/C=C1\C(=O)Nc2ccc(F)c(C#CCOC(N)=O)c21,> 5.40
7,CCN(CC)CC#Cc1c(F)ccc2c1/C(=C/c1[nH]cnc1C)C(=O)N2,> 5.40
8,COc1cc[nH]c1/C=C1\C(=O)Nc2cccc(C#CCCCC(N)=O)c21,> 5.40
9,Cc1nc[nH]c1/C=C1\C(=O)Nc2ccc(F)c(C#CCNC(N)=O)c21,> 5.40
10,COc1cc[nH]c1/C=C1\C(=O)Nc2cccc(C#CCCCC(=O)O)c21,> 5.40
11,COc1cc[nH]c1/C=C1\C(=O)Nc2cccc(C#CCC(C(=O)O)C(=O)O)c21,> 5.40
12,CCC(O)C#Cc1c([N+](=O)[O-])ccc2c1/C(=C/c1[nH]cnc1C)C(=O)N2 (configuration not stated),> 5.40
13,COc1cc[nH]c1/C=C1\C(=O)Nc2ccc(NC(=O)c3ccncc3)c(C#CCO)c21,> 5.40
14,COC(=O)CCCC#Cc1cccc2c1/C(=C/c1[nH]ccc1OC)C(=O)N2,> 5.40
15,COc1cc[nH]c1/C=C1\C(=O)Nc2cccc(C#CCOC(N)=O)c21,> 5.40
16,COc1cc[nH]c1/C=C1\C(=O)Nc2cccc(C#CCO)c21,> 5.40
17,Cc1nc[nH]c1/C=C1\C(=O)Nc2ccc(F)c(C#CC(C)(C)N)c21,> 5.40
18,CNCC#Cc1cccc2c1/C(=C/c1[nH]ccc1OC)C(=O)N2,> 5.40
19,CNC(=O)OCC#Cc1cccc2c1/C(=C/c1[nH]ccc1OC)C(=O)N2,> 5.40
20,Cc1nc[nH]c1/C=C1\C(=O)Nc2ccc(F)c(C#CCN3CCOCC3)c21,> 5.40
21,CCCCC[C@H](O)C#Cc1cccc2c1/C(=C/c1[nH]ccc1OC)C(=O)N2,> 5.40
22,COC(=O)CCC#Cc1c(N)ccc2c1/C(=C/c1[nH]ccc1OC)C(=O)N2,> 5.40
23,COc1cc[nH]c1/C=C1\C(=O)Nc2cccc(C#CC3(O)CCCC3)c21,> 5.40

row,SMILES,pIC50
1,COc1cc[nH]c1/C=C1\C(=O)Nc2cccc(C#CCCO)c21,> 5.40
2,COc1cc[nH]c1/C=C1\C(=O)Nc2cccc(C#CCN)c21,> 5.40
3,CCOC(=O)C(CC#Cc1c(F)ccc2c1/C(=C/c1[nH]cnc1C)C(=O)N2)NC(C)=O (configuration not stated),> 5.40
4,Cc1nc[nH]c1/C=C1\C(=O)Nc2ccc(F)c(C#CCN(C)C)c21,> 5.40
5,CCC(O)C#Cc1c(F)ccc2c1/C(=C/c1[nH]cnc1C)C(=O)N2 (configuration not stated),> 5.40
6,CCC(C)(O)C#Cc1cccc2c1/C(=C/c1[nH]ccc1OC)C(=O)N2 (configuration not stated),> 5.40
7,COc1cc[nH]c1/C=C1\C(=O)Nc2cccc(C#CCCCO)c21,> 5.40
8,CNCC#Cc1c(F)ccc2c1/C(=C/c1[nH]cnc1C)C(=O)N2,> 5.40
9,COc1cc[nH]c1/C=C1\C(=O)Nc2cccc(C#CCNCc3ccccc3)c21,> 5.40
10,COCC#Cc1cccc2c1/C(=C/c1[nH]ccc1OC)C(=O)N2,> 5.40
11,COc1cc[nH]c1/C=C1\C(=O)Nc2cccc(C#CC3(O)CCCCC3)c21,> 5.40
12,C#CCOCCO,> 5.40
13,CCCC(C)(O)C#Cc1cccc2c1/C(=C/c1[nH]ccc1OC)C(=O)N2 (configuration not stated),> 5.40
14,COC(=O)C(CC#Cc1cccc2c1/C(=C/c1[nH]ccc1OC)C(=O)N2)C(=O)OC,> 5.40
15,COc1cc[nH]c1/C=C1\C(=O)Nc2cccc(C#CCCCCO)c21,> 5.40
16,COc1cc[nH]c1/C=C1\C(=O)Nc2cccc(C#CCCC(=O)O)c21,> 5.40
17,COC(=O)NCC#Cc1cccc2c1/C(=C/c1[nH]ccc1OC)C(=O)N2,> 5.40
18,CCCCCC(O)C#Cc1cccc2c1/C(=C/c1[nH]ccc1OC)C(=O)N2 (configuration not stated),> 5.40
19,COc1cc[nH]c1/C=C1\C(=O)Nc2cccc(C#CC(C)(O)CC(C)C)c21 (configuration not stated),> 5.40
20,COc1cc[nH]c1/C=C1\C(=O)Nc2cccc(C#CCCC(N)=O)c21,> 5.40
21,Cc1nc[nH]c1/C=C1\C(=O)Nc2ccc(F)c(C#CCO)c21,> 5.40
22,Cc1nc[nH]c1/C=C1\C(=O)Nc2ccc(F)c(C#CCC(C)O)c21 (configuration not stated),> 5.40

# Same assay, conditions: concentration not given here
row,SMILES,inhibition
1,COc1cc[nH]c1/C=C1\C(=O)Nc2ccc([N+](=O)[O-])c(C#CCO)c21,> 90%
2,COC(=O)CCC#Cc1c([N+](=O)[O-])ccc2c1/C(=C/c1[nH]ccc1OC)C(=O)N2,> 60%
3,COC(=O)NCC#Cc1c(F)ccc2c1/C(=C/c1[nH]cnc1C)C(=O)N2,> 90%
